“Also recorded” adds a separate entry of the source.
Tests used:
[1] = tested on: GDH1 knockdown cells (H1299, MDA-MB231); assay: Rescue experiments in GDH1 knockdown cancer cells; assay type: cell-based, human
Experimental: (§1) Adherent cells or leukemia cells were seeded in six-well plate, and cell numbers were determined by trypan blue exclusion using TC10 automated cell counter (Bio-Rad).

[2] = tested on: H1299 GDH1 knockdown xenograft; assay: NAC rescue in H1299 GDH1 knockdown xenograft mice; assay type: in vivo; details: NAC 10 mg/ml drinking water
Experimental: Nude mice (athymic nu/nu, female, 4-6 weeks old; Harlan) were subcutaneously injected with H1299 cells harboring empty vector on the left flank, and cells with stable knockdown of GDH1 on the right flank, respectively. For the NAC rescue experiment, mice of the NAC rescue group were treated with NAC drinking water at 10 mg/ml from 3 days after H1299-GDH1 shRNA cells injection for 42 days. […] Tumor growth was recorded by measurement of two perpendicular diameters of the tumors, and tumor size was calculated. The tumors were harvested and weighed at the experimental endpoint.
Nude mice were subcutaneously injected with control H1299 cells harboring empty vector or GDH1 knockdown cells. NAC at a concentration of 10 mg/ml was administered via drinking water to half of the mice injected with GDH1 knockdown cells.

[3] = tested on: H1299 and MDA-MB231 cells; assay: Fumarate, GPx activity and ROS levels in R162-treated cells; assay type: cell-based, human
Experimental: (§2) GDH1 enzyme activity assay was performed. Total cell lysates (20 microg) or 100 ng of purified GDH1 was added to a reaction mixture containing 50 mM triethanolamine (pH 8.0), 100 mM ammoniumacetate, 100 microM NADPH, and 2.6 mM EDTA. […] GPx, SOD, TRX, GSR, and CAT enzyme activities were determined by using commercially available kits from Biovision according to the manufacturer's instructions. PRX enzyme activity was assayed by coupling its activity to oxidation of NADPH via TRXs.

[4] = tested on: H1299 and MDA-MB231 cells; assay: Cell proliferation assay (cell counting); assay type: cell-based, human
Experimental: as §1

[5] = Cell permeability; assay type: in vitro ADME
[6] = biological target: T1, GDH1 (Homo sapiens, UniProt P00367); assay: Thermal melt shift assay; assay type: binding; details: increasing concentrations of R162
Experimental: To examine the interaction between GDH1 and R162, a thermal melt shift assay was performed.

[7] = tested on: H1299 xenograft; assay: H1299 xenograft nude mice, R162 treatment; assay type: in vivo
Experimental: Nude mice (athymic nu/nu, female, 4-6 weeks old; Harlan) were subcutaneously injected with H1299 cells harboring empty vector on the left flank, and cells with stable knockdown of GDH1 on the right flank, respectively. For the NAC rescue experiment, mice of the NAC rescue group were treated with NAC drinking water at 10 mg/ml from 3 days after H1299-GDH1 shRNA cells injection for 42 days. To evaluate the efficacy of R162, the drug was administered from a day after H1299 cells injection by daily intraperitoneal injection of 30 mg/kg for 35 days. Fifty percent of DMSO in PBS was as a diluent control. Tumor growth was recorded by measurement of two perpendicular diameters of the tumors, and tumor size was calculated. The tumors were harvested and weighed at the experimental endpoint. Tumor proliferation was determined by Ki-67 IHC staining.
An in vivo R162 treatment was performed using H1299-xenograft nude mice. A day after xenograft injection, mice were divided into two groups (n=8 per group) and treated with either R162 ([…]) or control DMSO for 35 days.

[8] = biological target: T1, GDH1; assay: GDH1 enzyme activity assay with purified GDH1; assay type: biochemical; details: for potency and specificity for GDH1 inhibition in comparison of purpurin, R162 and EGCG: in vitro and in cancer cells; for inhibitory effect on GDH1 enzyme activity in vitro: purified GDH1
Experimental: as §2

[9] = tested on: primary leukemia cells from myeloid leukemia patients; assay: Cell viability of primary leukemia cells; assay type: cell-based, human
[10] = tested on: mononucleocytes in peripheral blood samples from healthy human donors; assay: Cell viability of mononucleocytes from healthy donors; assay type: cell-based
[11] = tested on: HaCaT, MRC-5 and HFF cells; assay: Cell viability in control proliferating human cells; assay type: cell-based; details: MRC-5, HFF control proliferative human cells
[12] = biological target: T2, mitochondrial GDH (Homo sapiens, UniProt P00367); assay: GDH activity in cancer cells treated with compound; assay type: cell-based; details: compared with purpurin; R162 20 microM
T2 construct: GDH activity in cancer cells treated with R162 (20 microM); endogenous in cells; host or cells: cancer cells (probably H1299 and MDA-MB231)
Experimental: as §2

[13] = In vivo toxicity study (hematology, histopathology); set-up: species or system mice
Experimental: The in vivo efficacy of R162 in the treatment of xenograft tumor mouse models was tested. For initial in vivo toxicity studies, 30 mg/kg/day of R162 was administered to mice for 30 days by intraperitoneal injection.

[14] = tested on: human lung cancer, breast cancer, and leukemia cell lines; assay: Cell viability in cancer cell lines; assay type: cell-based
[15] = biological target: T3, GPx1 (Homo sapiens, UniProt P07203); assay: Radiometric 14C-fumarate/14C-alpha-KG-GPx1 binding assay
T3 construct: made in house; host or cells: 293T cells (transfected)
T3 sequence (P07203 1-203): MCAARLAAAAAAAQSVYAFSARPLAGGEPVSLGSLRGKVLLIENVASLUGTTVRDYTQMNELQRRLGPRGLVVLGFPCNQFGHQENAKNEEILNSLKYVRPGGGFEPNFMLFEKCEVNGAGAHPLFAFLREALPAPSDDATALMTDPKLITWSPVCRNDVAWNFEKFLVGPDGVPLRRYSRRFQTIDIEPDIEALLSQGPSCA
Source text: The beads were then washed with TBS buffer. The bead-bound GPx1 protein was eluted with 10 microg flag peptides, and radioactivity was detected by liquid scintillation counting.

[16] = biological target: T3, GPx1; assay: Activity of purified GPx1 in the presence of metabolites; assay type: biochemical; details: physiological concentrations of metabolite; GPx1 from mammalian cells or human erythrocytes
Experimental: as §2
GPx activity in GDH1 knockdown cells.

[17] = biological target: T1, GDH1; details: cited from earlier work
[18] = biological target: T4, fumarate hydratase (FH) (Homo sapiens, UniProt P07954); assay: FH enzyme activity in vitro; assay type: biochemical
T4 sequence (P07954 45-510): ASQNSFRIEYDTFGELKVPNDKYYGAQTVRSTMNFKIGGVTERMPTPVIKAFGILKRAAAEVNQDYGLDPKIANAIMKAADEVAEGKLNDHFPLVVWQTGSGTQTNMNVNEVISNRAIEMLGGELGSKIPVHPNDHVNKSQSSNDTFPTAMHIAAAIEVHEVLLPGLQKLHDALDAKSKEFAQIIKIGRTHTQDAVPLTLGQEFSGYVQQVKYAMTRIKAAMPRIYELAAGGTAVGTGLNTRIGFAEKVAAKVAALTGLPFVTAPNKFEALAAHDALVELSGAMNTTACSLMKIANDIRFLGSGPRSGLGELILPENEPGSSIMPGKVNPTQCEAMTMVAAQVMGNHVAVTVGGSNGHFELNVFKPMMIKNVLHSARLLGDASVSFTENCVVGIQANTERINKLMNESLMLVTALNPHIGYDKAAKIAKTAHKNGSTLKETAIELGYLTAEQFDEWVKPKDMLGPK

[19] = biological target: T5, 6-phosphogluconate dehydrogenase (6PGD) (Homo sapiens, UniProt P52209); assay: 6PGD enzyme activity in vitro; assay type: biochemical
T5 sequence (P52209 1-483): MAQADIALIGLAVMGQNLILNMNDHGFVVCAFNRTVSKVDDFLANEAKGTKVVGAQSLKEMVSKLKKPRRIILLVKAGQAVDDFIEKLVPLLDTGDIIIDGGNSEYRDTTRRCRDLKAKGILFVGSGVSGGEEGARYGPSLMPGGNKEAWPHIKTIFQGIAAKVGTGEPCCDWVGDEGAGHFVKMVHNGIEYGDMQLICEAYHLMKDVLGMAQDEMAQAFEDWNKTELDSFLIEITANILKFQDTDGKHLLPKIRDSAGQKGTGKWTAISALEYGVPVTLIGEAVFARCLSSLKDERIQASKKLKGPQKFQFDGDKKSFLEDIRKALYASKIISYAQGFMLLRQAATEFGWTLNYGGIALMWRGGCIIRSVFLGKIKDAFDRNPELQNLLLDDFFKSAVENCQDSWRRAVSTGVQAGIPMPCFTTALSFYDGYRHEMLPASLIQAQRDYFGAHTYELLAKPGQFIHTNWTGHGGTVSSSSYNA

[20] = biological target: T1, GDH1; assay: Tryptophan fluorescence binding assay; details: purified GDH1, tryptophan fluorescence binding
Experimental: Purified GDH1 was incubated with increasing concentrations of purpurin.

[21] = R162 20 mg/kg/day for 35 days vs control DMSO

T1 sequence (P00367 54-558): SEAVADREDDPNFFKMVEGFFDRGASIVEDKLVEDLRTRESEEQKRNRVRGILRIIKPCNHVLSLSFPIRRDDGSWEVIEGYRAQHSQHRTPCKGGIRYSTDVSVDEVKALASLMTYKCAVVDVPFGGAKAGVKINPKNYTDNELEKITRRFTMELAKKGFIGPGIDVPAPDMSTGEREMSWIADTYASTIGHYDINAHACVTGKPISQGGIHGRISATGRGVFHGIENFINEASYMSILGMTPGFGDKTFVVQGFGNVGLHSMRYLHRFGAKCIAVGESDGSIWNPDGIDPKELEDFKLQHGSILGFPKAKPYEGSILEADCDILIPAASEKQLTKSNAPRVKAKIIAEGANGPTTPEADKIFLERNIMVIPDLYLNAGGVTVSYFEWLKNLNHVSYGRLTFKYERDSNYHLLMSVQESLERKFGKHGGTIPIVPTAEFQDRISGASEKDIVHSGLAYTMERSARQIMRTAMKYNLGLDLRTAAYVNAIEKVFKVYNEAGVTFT
T2 sequence (P00367 54-558): as above

CC(=O)N[C@@H](CS)C(=O)O [NAC, N-acetylcysteine]
rescue of increased ROS [1]: significantly rescued
rescue of reduced cell proliferation [1]: significantly rescued
rescue of attenuated tumor growth [2]: partially rescued
rescue of R162 effects (fumarate, GPx activity, ROS, cell proliferation) ([3]; R162-treated H1299 and MDA-MB231 cells): significantly rescued

C=CCc1ccc2c(c1O)C(=O)c1ccccc1C2=O [R162, 2-allyl-1-hydroxyanthracene-9,10-dione]
cell proliferation [4]: reduced cell proliferation
cell permeability [5]: more cell-permeable than purpurin
melting temperature (Tm) of GDH1 [6]: raised the melting temperature (Tm) in a dose-dependent manner
tumor growth [7, 21]: significantly decreased
tumor masses [7, 21]: significantly decreased
GDH1 activity in resected tumors ([7]; xenograft nude mice): effectively inhibited GDH1 activity
mode of inhibition (Lineweaver-Burk plot) ([8]; different concentrations of GDH1 substrate alpha-KG): mixed model inhibitor
potency and specificity for GDH1 inhibition in comparison of purpurin, R162 and EGCG [8]: more potent and specific
inhibitory effect on GDH1 enzyme activity in vitro [8]: potent GDH1 inhibitor
cell viability [9]: decreased cell viability
cell viability [10]: did not affect cell viability
cell viability [11]: but not in human proliferating cells
inhibitory effect on mitochondrial GDH activity in cancer cells [12]: more potent inhibitory effects
histopathological change ([13]; 30 mg/kg/day for 30 days, intraperitoneal, vs vehicle): did not result in a significant histopathological change
Basophils ([13]; mice, 30 mg/kg/day): 0.105 ± 0.06 ×10^3/μl
Eosinophils ([13]; mice, 30 mg/kg/day): 0.21 ± 0.07 ×10^3/μl
HCT ([13]; mice, 30 mg/kg/day): 45.95 ± 3.74%
HGB ([13]; mice, 30 mg/kg/day): 11.1 ± 1.55 g/dL
LYM ([13]; mice, 30 mg/kg/day): 3.145 ± 0.10 ×10^3/μl
MCH ([13]; mice, 30 mg/kg/day): 13.35 ± 0.91 pg
MCHC ([13]; mice, 30 mg/kg/day): 24.1 ± 1.41 g/dL
MCV ([13]; mice, 30 mg/kg/day): 55.35 ± 0.49 fL
MONO ([13]; mice, 30 mg/kg/day): 0.165 ± 0.007 ×10^3/μl
MPV ([13]; mice, 30 mg/kg/day): 6.05 ± 0.21 fL
NEU ([13]; mice, 30 mg/kg/day): 1.71 ± 0.18 ×10^3/μl
RBC ([13]; mice, 30 mg/kg/day): 8.3 ± 0.60 ×10^6/μl
RDW ([13]; mice, 30 mg/kg/day): 18.5 ± 0.56%
WBC ([13]; mice, 30 mg/kg/day): 5.33 ± 0.41 ×10^3/μl
GPx activity ([3]; H1299 and MDA-MB231 cells): attenuated GPx activity
intracellular fumarate levels ([3]; H1299 and MDA-MB231 cells): decreased intracellular fumarate levels
ROS levels ([3]; cancer cells (H1299, MDA-MB231) treated with R162): elevated ROS levels; also recorded: increased ROS levels
cell viability [14]: attenuated cell viability

O=C(O)/C=C/C(=O)O [fumarate]
retention of 14C-labeled metabolite on GPx1 [15]: retained on GPx1
Kd ([15]; read-out: Kd value of the GPx1-fumarate interaction): 75.5 ± 5.22 µM
activity of purified human GPx1 [16]: significantly increased

O=C(O[C@@H]1Cc2c(O)cc(O)cc2O[C@@H]1c1cc(O)c(O)c(O)c1)c1cc(O)c(O)c(O)c1 [EGCG, epigallocatechin gallate]
GDH1 inhibition as reported [17]: reported to inhibit GDH1 activity
effect on activity of FH [18]: significantly affected activity
effect on activity of 6PGD [19]: significantly affected activity

O=C1c2ccccc2C(=O)c2c(O)c(O)cc(O)c21 [purpurin, reference compound]
cell permeability [5]: not cell permeable
Kd [20]: 11.5 ± 1.17 µM
potency and specificity for GDH1 inhibition in comparison of purpurin, R162 and EGCG [8]: more potent and specific
inhibitory effect on GDH1 enzyme activity in vitro [8]: dramatic inhibitory effects
Ki ([8]; recombinant, purified active GDH1, in vitro GDH activity assay): 1.9 ± 0.26 µM

From patent publication US9801898B2, “Glutamate dehydrogenase 1 inhibitors and methods of treating cancer” (Emory University, priority 2015, dated 2017)
